# Patent US20250283035A1, “MORPHOGENIC COMPOUND-RELEASING MICROSPHERES AND USE IN BIOINK” (UVic Industry Partnerships Inc., priority 2018, published 2025)
# Several values for one entry are separate records, joined by “and”; a condition that tells them apart may be missing. Identical values can stand only once. Like-named read-outs stand apart in the source and are kept apart here.
# Experiments:
# [1] = drug in microspheres, literature values, cited from earlier work
# [2] = cited from earlier work
# [3] = 46-day purmorphamine release study from PCL microspheres in PBS; format: physicochemical
# Protocol: A 46-day release study was performed to determine the release kinetics of purmorphamine. Each sample contained 10 mg of microspheres and 1 ml of PBS placed on 1.5 ml micro tubes (Axygen®). Samples for each day of collection (n=3) were placed on a VWR® mini shaker at 330 rpm at 37° C. and were collected every 4 days. After collection, samples were washed with de-ionized water and freeze-dried for further analysis. The drug was extracted from the microspheres and then quantified with high-performance liquid chromatography (HPLC) to estimate the puro concentration in the microspheres. Next, 10 mg of microspheres was placed in 1.5 ml microtubes in triplicate. […] The samples were then placed on the vortex mixer (Eppendorf® MixMate®) at 2500 rpm for 5 minutes. […] The samples were then placed at −80° C. for 5 minutes followed by centrifugation (Eppendorf 5424) at 1500 rpm for five minutes. The samples were filtered using 0.2 μm PTFE syringe filters before adding the supernatant to amber vials. HPLC was performed using an Agilent 1200 equipped with quaternary pump and diode-array detector (DAD) to quantify the amount of puro present in samples. A standard of puro with eleven dilutions of a stock solution diluted in ACN was used to determine the concentrations of the samples. The column used was an Eclipse Plus C18 (Agilent) with 5 μm particle size, 4.6 mm internal diameter (ID), and was 150-mm long with similar phase and ID guard column. Samples were analyzed at 300 nm after mass spectroscopy was used to generate a spectrum for puro. Mass spectroscopy information was acquired using an Ultimate 3000 HPLC system connected to an Orbitrap (Thermo Fisher Scientific). The system was used in direct infusion mode with no separation. Solvents used for this analysis were HPLC-grade ACN mixed with […] dispensed from a Milli-Q integral purification system (Millipore, ON, Canada). Both contained 0.1% V/V trifluoroacetic acid (TFA) (Fisher Scientific, Hampton, NH). […] ChemStation software was used for data analysis with auto-integration adjusted manually when needed.
# [4] = Guggulsterone encapsulation efficiency (extraction, HPLC-MS); format: physicochemical; settings: PCL microspheres, 0.6 μg/mg GS/PCL; of total GS added
# Protocol: The amount of GS encapsulated per unit weight of microspheres was determined by extracting the drug from the fabricated microspheres. A measured amount of lyophilized microspheres was placed in a 1.5 mL propylene microtube, and 200 μL of ACN was added to each sample. The samples were vortexed at 3000 rpm for 30 seconds, vortexed for 5 minutes at 350 rpm (Eppendorf® MixMate®), and mixed with a micropipette for 10 seconds. These mixing steps were repeated twice to dissolve the PCL. Next, 1000 μL of additional ACN was added to the samples and mixed by micropipette for 10 seconds and then vortexed at 3000 rpm for 30 seconds. The solution was then centrifuged at 22° C. and 13000 rpm for 5 min using an Eppendorf 5424 Microcentrifuge. Thereafter, 1000 μL of the supernatant was transferred to a microtube and diluted as necessary for high performance liquid chromatography-mass spectrometry (HPLC-MS). The concentration of the drug in the sample was determined using HPLC-MS (Ultimate 3000 MSQ, Thermo Scientific with Chromeleon™ software) and run against a GS standard composed of five dilutions of a stock solution composed of GS dissolved in ACN. […]
# [5] = ref [50]; cited from earlier work
# [6] = cited from earlier work; remark: listed apart in the source
# [7] = Degradation of fibrin scaffolds containing drug (Example 3)
# hiPS aggregates [8] = assay: Flow cytometry of βIII-tubulin (TUJ1), Olig2, GFAP in hiPS aggregates (Example 2); format: cell-based, human; design: unit of the concentration uncertain
# Protocol: ReLeSR™ was used to select and remove undifferentiated hiPSs from the wells. Uniform hiPS aggregates were formed by adding a single cell suspension in STEMdiff™ Neural Induction Medium of 1×106 hiPSs to wells in AggreWell™ 800 plates and centrifuged for 5 min at 100×g to deposit the cells at the bottom of each microwell. Before incorporation with the cells, the microspheres were sterilized by low power air-plasma treatment (Harrick PDC-32G) for 30 seconds as described previously. When forming microsphere-incorporated hiPS aggregates, 0.5 mg of microspheres suspended in STEMdiff™ Neural Induction Medium was added to each AggreWell™ 800 well for a total of 2 mL of media in each well and centrifuged for 5 min at 100×g (FIGS. 11A-11B). The aggregates in the AggreWell™ 800 plates were maintained in 2 mL of STEMdiff™ Neural Induction Medium with daily media changes for 5 days. On day 5, the aggregates were harvested for immunocytochemistry or transferred to PLO/laminin-coated 24-well plates at a single aggregate per well for the remaining duration of the cell study (until day 12 or day 20). […] Negative control treatments contained aggregates without microspheres and media without soluble drug added. […]
# Cell marker expression was quantified with flow cytometry on day 20 for β-tubulin III, Olig-2, and GFAP. […]
# hiPS aggregates [9] = assay: Neurite morphology analysis of hiPS aggregates, IncuCyte (Example 2); format: cell-based, human; settings: day 12
# Protocol: ReLeSR™ was used to select and remove undifferentiated hiPSs from the wells. Uniform hiPS aggregates were formed by adding a single cell suspension in STEMdiff™ Neural Induction Medium of 1×106 hiPSs to wells in AggreWell™ 800 plates and centrifuged for 5 min at 100×g to deposit the cells at the bottom of each microwell. Before incorporation with the cells, the microspheres were sterilized by low power air-plasma treatment (Harrick PDC-32G) for 30 seconds as described previously. […]
# Immunostained cell aggregates were imaged with an IncuCyte® ZOOM automatic live-cell imaging system (Essen BioScience, Ann Arbor, MI) at 10× magnification. Quantification of the morphological metrics of neurite length and branch points was performed using IncuCyte® ZOOM Software (2016A). Using the NeuroTrack™ software module, day 12 and day 20 green channel fluorescence (anti-beta-tubulin III positive) images were analyzed by masking the total neurite coverage and calculating the average length and branch points with the same processing definition. The cell aggregate area was analyzed for day 12 images using a NeuroTrack™ software processing definition, whereas a Basic Analyzer processing definition (used for confluence masking) was used to analyze the day 20 images. […]
# [10] = quoted in Example 1 from ref [42]; cited from earlier work
# [11] = In vitro guggulsterone release study from PCL microspheres in PBS; format: physicochemical
# Protocol: In vitro release studies were performed in triplicate. Ten milligrams of microspheres was suspended in 1 mL of PBS in a microtube. The tubes were then loaded onto a Sarstedt Sarmix mr-1 tube rotator and incubated at 37° C. The PBS supernatant for each tube was replaced every 2 days while tubes were removed and collected from the rotator at the following predetermined time points: day 2, 4, 8, 12, 16, 20, 24, 28, 36, and 44. For the collected tubes, the PBS supernatant was removed, and the microspheres were washed with deionized water, lyophilized, and weighed. The remaining GS concentration inside the microspheres was determined as previously described by dissolving microspheres with DCM, extracting the drug/precipitating PCL with 100% ethanol, and reading the absorbance at 255 nm using a Tecan Infinite® M200Pro plate reader (Gomez, et al., 2015). The amount of GS released was calculated by subtracting the GS remaining in the microspheres from the theoretical GS present in each amount of microspheres at day 0. Percentages of the drug that were assumed to be released for each sample day were calculated by comparing drug amounts leftover and initial amounts of the drug inside the microspheres to create a cumulative release graph.
# [12] = if release rate consistent beyond 44 days
compound,measurement,setting,value
O=C1CN=C(c2ccccc2Cl)c2cc([N+](=O)[O-])ccc2N1 [Clonazepam],"encapsulation efficiency, previously reported",[1],72.6-95.1%
"CC1=C(/C=C/C(C)=C/C=C/C(C)=C/C(=O)O)C(C)(C)CCC1 [RA, retinoic acid]",cumulative RA release from PCL microspheres,"[2]; day 28, RA concentration 7.5 times greater",~53%
same,cumulative RA release from PCL microspheres,"[2]; day 28, lower RA concentration",28%
same,"encapsulation efficiency, previously reported",[1],60.0%
same,"encapsulation efficiency, previously reported",[1]; listed as retinoic acid,~60%
CC(=O)OCC(=O)[C@@]1(O)CC[C@H]2[C@@H]3CCC4=CC(=O)CC[C@]4(C)[C@H]3[C@@H](O)C[C@@]21C [hydrocortisone 21-acetate],"encapsulation efficiency, previously reported",[1],~55%
C[C@]12CCC(=O)C=C1CC[C@@H]1[C@@H]2[C@@H](O)C[C@@]2(C)[C@H]1CC[C@]2(O)C(=O)CO [hydrocortisone],"encapsulation efficiency, previously reported",[1],~9%
"c1ccc2c(Oc3nc(Nc4ccc(N5CCOCC5)cc4)c4ncn(C5CCCCC5)c4n3)cccc2c1 [puro, purmorphamine]",cumulative puro release,[3]; day 28,68%
same,cumulative puro release,[3]; day 44,~87%
same,cumulative puro release,"[3]; day 46, of theoretically encapsulated drug",91%
same,puro released on average per day,[3]; from 0.34 mg of puro-loaded microspheres added to cell aggregates,~0.0748 µg
same,puro released every day,[3]; from 10 mg of microspheres,2.2 µg
guggulsterone [GS],GS encapsulation efficiency,[4],42.4±3.5% and ~42%
same,susceptibility to degradation,[5],"susceptible to degradation, including photodegradation"
same,"cumulative GS release, previously reported","[6]; day 28, quoted in Example 1 from refs [40, 42]",45%
same,"cumulative GS release, previously reported","[6]; day 44, quoted in Example 1 from refs [40, 42]",55%
same,degradation of fibrin scaffolds containing the drug,[7],degraded much faster than samples containing RA
same,TUJ1 expression (flow cytometry),"hiPS aggregates [8]; day 20, soluble GS at 0.25 µM",~4%
same,TUJ1 expression (flow cytometry),"hiPS aggregates [8]; day 20, soluble GS at 2.5 µM",~7%
same,neurite length per cell cluster area,hiPS aggregates [9],greater neurite length compared to the negative control
same,"GS encapsulation efficiency, previously reported",[10],42.4%
same,concentration of GS released,[11]; 0.5 mg of microspheres per aggregate-forming well,~0.93 ng/mL
same,cumulative GS release,[11]; day 28,~45%
same,cumulative GS release,"[11]; day 44 (final day), of drug theoretically encapsulated",~60% and ~62%
same,average release of GS per day,"[11]; from 10 mg of microspheres, slope of graph",37 ng
same,additional duration of GS delivery beyond 44 days,[11]; [12],27 days
same,total duration of drug release,[11]; [12],71 days
same,total amount of guggulsterone encapsulated,[11]; in 10 mg of microspheres,~2550 ng
same,theoretical total amount of drug initially in each sample,"[11]; in 10 mg of microspheres, day 0",~2.5 µg
